Measurements taken from PubChem BioAssay (NCI).
“And” between values parts separate entries of the source, which are not always exact repeats. Equal values may be shown once.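 Values below derive from 48-hour exposures of cells grown in 96-well plates, with endpoints linearly interpolated between the two concentrations bracketing the appropriate inhibition level. GI50: concentration for 50% inhibition of growth. Definition used: TGI = concentration required for complete inhibition of growth.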

How the values were obtained:
Experiment in all cases: NCI anticancer screen, dose series, 48 h
[1] = tested on: A549 NSCLC
[2] = tested on: CAKI-1 renal
[3] = tested on: KM12 colon
[4] = tested on: M14 melanoma
[5] = tested on: NCI-H460 lung
[6] = tested on: SF-539 CNS
[7] = tested on: CCRF-CEM leukemia
[8] = tested on: SF-268 CNS
[9] = tested on: DU-145 prostate
[10] = tested on: HS 578T breast

Compound	GI50 [1]	TGI [1] [µM]	GI50 [2] [µM]	TGI [2] [µM]	GI50 [3]	TGI [3]	GI50 [4]	TGI [4] [µM]	GI50 [5]	TGI [5] [µM]	GI50 [6] [µM]	TGI [6]	GI50 [7]	TGI [7] [µM]	GI50 [8]	TGI [8] [µM]	GI50 [9]	TGI [9] [µM]	GI50 [10] [µM]	TGI [10] [µM]
CCC[CH2][Sn]1([CH2]CCC)[O]N=Cc2ccccc2[O]1	1.84 µM	3.8	0.322	1.08	1.47 µM	2.78 µM	0.78 µM	2.09	1.44 µM	2.76	1.17	2.43 µM	–	–	–	–	–	–	–	–
c1cc[c]([Sn]([O]c2cccc3cccnc23)([c]2ccccc2)[c]2ccccc2)cc1	0.0184 µM	0.0427	0.0188	0.0852	0.0135 µM	0.0267 µM	0.0166 µM	0.0319	0.0154 µM	0.0321	0.0195	0.0387 µM	0.0115 µM	0.11	0.0128 µM	0.0275	–	–	–	–
COC(=O)C12CC(NC(=O)c3csc([C@@H](C[C@H](C(C)C)N(C)C(=O)[C@@H](NC(=O)[C@H]4CCCCN4C)C(C)C)OC(C)=O)n3)(C1)C2	0.0163 µM and 0.00413 µM	> 33.3	–	–	0.00507 µM and 0.00333 µM	> 33.3 µM	0.00176 µM and 0.00333 µM	> 33.3	0.00298 µM and 0.00333 µM	> 33.3	0.00226	0.0267 µM	0.000518 µM and 0.00333 µM	> 33.3	0.00488 µM and 0.00388 µM	> 33.3	0.00165 µM and 0.00333 µM	> 33.3	0.00333	> 33.3
C=C1C(=O)O[C@H]2[C@H]1CC/C(COC(=O)c1ccc(Br)cc1)=C\CC[C@@]1(C)O[C@@H]21	1.96 µM	4.56	–	–	1.8 µM	3.66 µM	1.47 µM	3.2	1.99 µM	4.3	1.5	2.88 µM	0.393 µM	7.76	1.55 µM	3.14	1.35 µM	2.65	2.51	7.64
COc1ccccc1NC(=O)NS(=O)(=O)c1ccccc1	–	> 100	–	> 100	–	> 100 µM	–	> 100	–	> 100	–	> 100 µM	–	–	–	> 100	–	–	–	–
CC1CC(=O)CC[C@@H]1OCc1ccccc1 (some centres undefined)	–	> 100	–	> 100	–	> 100 µM	–	> 100	–	> 100	–	> 100 µM	–	> 100	–	> 100	–	–	–	–
COc1ccc(CN[C@H]2CCc3cc(OC)c(OC)c(OC)c3-c3ccc(SC)c(=O)cc32)c(OC)c1OC	0.0251 µM	> 100	–	> 100	< 0.01 µM	0.228 µM and 0.0408 µM	0.0102 µM	–	–	0.0767	0.01	0.0478 µM and 0.0387 µM	0.0107 µM	5.46	0.0111 µM	–	–	–	–	–
COC(=O)C([O][Ge]([CH3])([CH3])[CH3])c1ccccc1 (centres undefined)	> 100 µM	> 100	> 100	> 100	> 100 µM	> 100 µM	> 100 µM	> 100	> 100 µM	> 100	> 100	> 100 µM	> 100 µM	> 100	> 100 µM	> 100	–	–	–	–
C=CCN1C(=O)C/C(=C2/CCC(=O)N2CC=C)C1=O	–	> 100	–	> 100	–	> 100 µM	–	> 100	–	> 100	–	> 100 µM	–	> 100	–	> 100	–	–	–	–
N#CC(N)(C(=O)C(=O)NCCCNC(=O)C(=O)C(N)(C#N)c1ccc(Cl)cc1)c1ccc(Cl)cc1 (centres undefined)	–	> 100	–	> 100	–	> 100 µM	–	> 100	–	> 100	–	> 100 µM	–	> 100	–	> 100	–	–	–	–
CC(C)S(=O)(=O)ON1C(=O)c2ccc([N+](=O)[O-])cc2C1=O	–	> 100	–	> 100	–	> 100 µM	–	> 100	–	> 100	–	> 100 µM	–	> 100	–	> 100	–	–	–	–
CCC1C(=O)OCc2c1cc1n(c2=O)Cc2ccccc2-1 (centres undefined)	–	> 100	–	> 100	–	> 100 µM	–	> 100	–	> 100	–	> 100 µM	–	> 100	–	> 100	–	–	–	–
Cc1ccc(S(=O)(=O)N/N=C/CN2C(=O)c3ccccc3C2=O)cc1	–	> 100	–	> 100	–	–	–	> 100	–	> 100	–	> 100 µM	–	> 100	–	–	–	–	–	–
CC(C)N(C(=O)C12C3C4C5C3C1(C(=O)N(C(C)C)C(C)C)C5C42)C(C)C (centres undefined)	–	> 100	–	> 100	–	> 100 µM	–	> 100	–	> 100	–	> 100 µM	–	> 68.3	–	> 100	–	–	–	–
COc1ccc2nc(NC(=O)C(=O)C(C#N)c3ccc(CC#N)cc3)sc2c1 (centres undefined)	–	> 100	–	> 100	–	> 100 µM	–	> 100	–	> 100	–	> 100 µM	–	> 100	–	> 100	–	–	–	–
Nc1ccc(C(=O)N/C(=C\c2ccc3c(c2)OCO3)c2nc3ccc4c(c3[nH]2)C(=O)c2ccccc2C4=O)cc1	–	79.3	–	> 100	–	> 100 µM	–	> 100	–	> 100	–	> 100 µM	–	92.6	–	> 100	–	–	–	–
C/C(CC(=O)Nc1cc(Cl)c(Cl)cc1Cl)=N\NS(=O)(=O)c1ccc(C)cc1	–	> 100	–	–	–	> 100 µM	–	91.4	–	> 100	–	85.8 µM	–	> 100	–	> 100	–	–	–	–
COc1ccc(C(=O)C(CN(C)C)c2ccccc2)cc1 (centres undefined)	18.1 µM	96.3	2.08	7.82	3.98 µM	13.6 µM	1.68 µM	3.33	6.13 µM	19.2	5.07	16.6 µM	1.84 µM	11.9	2.17 µM	4.86	–	–	1.95	6.17
CC(C)C(NCc1c2ccccc2nc2ccccc12)C(=O)O (centres undefined)	–	> 100	–	> 100	–	> 100 µM	–	> 100	–	> 100	–	> 100 µM	–	88.3	–	> 100	–	–	–	–
COc1cccc(C2N3CCCCC3[C@@H]3c4[nH]c5ccccc5c4CCN23)c1OC (some centres undefined)	–	29.9	–	33.5	–	–	–	29.6	–	36.3	–	28.5 µM	–	35.4	–	23.7	–	–	–	–
